Assays:
[1] = Part A: steady-state PK of AZD5363 tablet versus capsule, partially fasted, in patients with advanced solid malignancies; type: in vivo, human
Description: PK parameters were assessed on the fourth day of Week 1 and Week 2 (i.e. on Day 4 and Day 11). […] In addition, pre-dose samples were drawn on Day 8 in Part B to verify that a washout period of 3.5 days was adequate for AZD5363. […] Following the addition of internal standard ([^13C6]AZ12886380), calibration, quality control (QC) and study samples (25 µL) were processed by solid-phase extraction then assayed for AZD5363 by liquid chromatography–tandem mass spectrometry. […] All trial samples were analysed within the known stability period for AZD5363 and all a priori assay acceptance criteria were met, in accordance with regulatory guidance. […] PK parameters were derived using non-compartmental methods (Phoenix® WinNonlin®). Plasma concentration–time profiles were analysed to determine Cmax, Cmin and tmax, while AUCτ was determined from application of the linear-up/log-down trapezoidal rule. […] The statistical analysis for estimating the food and capsule effect was based on analysing log-transformed PK parameters AUCτ and Cmax using a fixed-effects model with terms for patient and treatment only. […] Other PK parameters are presented descriptively.

[2] = Part B: safety and tolerability (adverse events, CTCAE v4.0) of AZD5363 tablet, fasted versus fed; type: in vivo, human; settings: for Abdominal pain, All / Abdominal pain, Grade ≥ 3 / Anaemia, All / Anaemia, Grade ≥ 3 / Any AE (causally related), All / Any AE (causally related), Grade ≥ 3 / Any AE (irrespective of causality), All / Any AE (irrespective of causality), Grade ≥ 3 / Diarrhoea, All / Diarrhoea, Grade ≥ 3 / Hyperglycaemia, All / Hyperglycaemia, Grade ≥ 3 / Hypokalaemia, All / Hypokalaemia, Grade ≥ 3 / Pneumonia, All / Pneumonia, Grade ≥ 3 / Rash macular, All / Rash macular, Grade ≥ 3 / Rash maculopapular, All / Rash maculopapular, Grade ≥ 3 / Rash papular, All / Rash papular, Grade ≥ 3 / Skin discolouration, All / Skin discolouration, Grade ≥ 3: tablet
Description: (§1) Patients had been fasting overnight prior to the breakfast and no further food was permitted for 4 h post-dose.
Safety assessments throughout the study encompassed the incidence and severity of AEs (graded according to Common Terminology Criteria for Adverse Events [CTCAE] version 4.0), in addition to laboratory parameters (haematology, clinical chemistry, urinalysis), physical examination, 12-lead electrocardiography (ECG), and vital signs. To assess safety in the fed versus fasted state, the period during and just after the fasted day was considered relevant to the fasted dose (Days 4–7), and similarly, the fed day and subsequent days were considered relevant to the fed state (Days 11–14). Any AE occurring after the first dose of study treatment and up to 28 days after the last dose of study treatment was included in the AE summaries.
The safety analysis set comprised all patients who received at least one dose of AZD5363. All safety data are presented descriptively.

[3] = Part A: safety and tolerability (adverse events, CTCAE v4.0) of AZD5363 tablet and capsule; type: in vivo, human
Description: PK parameters were assessed on the fourth day of Week 1 and Week 2 (i.e. on Day 4 and Day 11). […] Any AE occurring after the first dose of study treatment and up to 28 days after the last dose of study treatment was included in the AE summaries. The safety analysis set comprised all patients who received at least one dose of AZD5363. All safety data are presented descriptively.

[4] = parameters: method as in PMID 29066505; settings: cited from earlier work
[5] = Part B: effect of food (overnight fast versus standardized meal) on steady-state PK of AZD5363 tablet in patients; type: in vivo, human; settings: for AUCτ, Gmean (CV%) / Cmax, Gmean (CV%) / Cmin, Gmean (CV%) / tmax, median (range): tablet 480 mg bid, steady state, N = 9
Description: as §1
The bioanalytical method used to generate AZD5363 plasma concentration data for the derivation of PK parameters for the study had been previously validated, according to regulatory guidance, by Covance UK Ltd on behalf of AstraZeneca. Following the addition of internal standard ([^13C6]AZ12886380), calibration, quality control (QC) and study samples (25 µL) were processed by solid-phase extraction then assayed for AZD5363 by liquid chromatography–tandem mass spectrometry. […] All trial samples were analysed within the known stability period for AZD5363 and all a priori assay acceptance criteria were met, in accordance with regulatory guidance.
PK parameters were derived using non-compartmental methods (Phoenix® WinNonlin®). Plasma concentration–time profiles were analysed to determine Cmax, Cmin and tmax, while AUCτ was determined from application of the linear-up/log-down trapezoidal rule.
The statistical analysis for estimating the food and capsule effect was based on analysing log-transformed PK parameters AUCτ and Cmax using a fixed-effects model with terms for patient and treatment only. All statistical calculations and analyses were performed with SAS® software, version 9.1.3 or higher. Other PK parameters are presented descriptively.

[6] = Day 15 onward, partially fasted, N = 12
[7] = Day 11, fed (standardized meal)
[8] = tablet, N = 9, 90% CI where printed in brackets

4-amino-N-[(1S)-1-(4-chlorophenyl)-3-hydroxypropyl]-1-(7H-pyrrolo[2,3-d]pyrimidin-4-yl)piperidine-4-carboxamide [AZD5363]
Intra-patient variability for AUCτ ([1]; Part A, estimated): 20% | Intra-patient variability for Cmax ([1]; Part A, estimated): 22% | Intra-subject variability in AUCτ and Cmax ([1]; Parts A and B): around 20 % CV | Number of SAEs ([2]; in six patients of 12): 11 | Abdominal pain, All [2, 6]: 1 (8.3) Number of patients (%) | Abdominal pain, Grade ≥ 3 [2, 6]: 1 (8.3) Number of patients (%) | Anaemia, All [2, 6]: 1 (8.3) Number of patients (%) | Anaemia, Grade ≥ 3 [2, 6]: 1 (8.3) Number of patients (%) | Any AE (causally related), All [2, 6]: 10 (83.3) Number of patients (%) | Any AE (causally related), Grade ≥ 3 [2, 6]: 5 (41.7) Number of patients (%) | Any AE (irrespective of causality), All [2, 6]: 12 (100.0) Number of patients (%) | Any AE (irrespective of causality), Grade ≥ 3 [2, 6]: 7 (58.3) Number of patients (%) | Diarrhoea, All [2, 6]: 8 (66.7) Number of patients (%) | Diarrhoea, Grade ≥ 3 [2, 6]: 1 (8.3) Number of patients (%) | Hyperglycaemia, All [2, 6]: 6 (50.0) Number of patients (%) | Hyperglycaemia, Grade ≥ 3 [2, 6]: 5 (41.7) Number of patients (%) | Hypokalaemia, All [2, 6]: 1 (8.3) Number of patients (%) | Hypokalaemia, Grade ≥ 3 [2, 6]: 1 (8.3) Number of patients (%) | Pneumonia, All [2, 6]: 1 (8.3) Number of patients (%) | Pneumonia, Grade ≥ 3 [2, 6]: 1 (8.3) Number of patients (%) | Rash macular, All [2, 6]: 1 (8.3) Number of patients (%) | Rash macular, Grade ≥ 3 [2, 6]: 0 Number of patients (%) | Rash maculopapular, All [2, 6]: 2 (16.7) Number of patients (%) | Rash maculopapular, Grade ≥ 3 [2, 6]: 2 (16.7) Number of patients (%) | Rash papular, All [2, 6]: 0 Number of patients (%) | Rash papular, Grade ≥ 3 [2, 6]: 0 Number of patients (%) | Skin discolouration, All [2, 6]: 1 (8.3) Number of patients (%) | Skin discolouration, Grade ≥ 3 [2, 6]: 1 (8.3) Number of patients (%) | Abdominal pain, All ([2]; Days 4–7, fasted dose, N = 12): 0 Number of patients (%) | Abdominal pain, Grade ≥ 3 ([2]; Days 4–7, fasted dose, N = 12): 0 Number of patients (%) | Anaemia, All ([2]; Days 4–7, fasted dose, N = 12): 1 (8.3) Number of patients (%) | Anaemia, Grade ≥ 3 ([2]; Days 4–7, fasted dose, N = 12): 0 Number of patients (%) | Any AE (causally related), All ([2]; Days 4–7, fasted dose, N = 12): 4 (33.3) Number of patients (%) | Any AE (causally related), Grade ≥ 3 ([2]; Days 4–7, fasted dose, N = 12): 2 (16.7) Number of patients (%) | Any AE (irrespective of causality), All ([2]; Days 4–7, fasted dose, N = 12): 5 (41.7) Number of patients (%) | Any AE (irrespective of causality), Grade ≥ 3 ([2]; Days 4–7, fasted dose, N = 12): 2 (16.7) Number of patients (%) | Diarrhoea, All ([2]; Days 4–7, fasted dose, N = 12): 2 (16.7) Number of patients (%) | Diarrhoea, Grade ≥ 3 ([2]; Days 4–7, fasted dose, N = 12): 1 (8.3) Number of patients (%) | Hyperglycaemia, All ([2]; Days 4–7, fasted dose, N = 12): 1 (8.3) Number of patients (%) | Hyperglycaemia, Grade ≥ 3 ([2]; Days 4–7, fasted dose, N = 12): 1 (8.3) Number of patients (%) | Hypokalaemia, All ([2]; Days 4–7, fasted dose, N = 12): 0 Number of patients (%) | Hypokalaemia, Grade ≥ 3 ([2]; Days 4–7, fasted dose, N = 12): 0 Number of patients (%) | Pneumonia, All ([2]; Days 4–7, fasted dose, N = 12): 0 Number of patients (%) | Pneumonia, Grade ≥ 3 ([2]; Days 4–7, fasted dose, N = 12): 0 Number of patients (%) | Rash macular, All ([2]; Days 4–7, fasted dose, N = 12): 0 Number of patients (%) | Rash macular, Grade ≥ 3 ([2]; Days 4–7, fasted dose, N = 12): 0 Number of patients (%) | Rash maculopapular, All ([2]; Days 4–7, fasted dose, N = 12): 1 (8.3) Number of patients (%) | Rash maculopapular, Grade ≥ 3 ([2]; Days 4–7, fasted dose, N = 12): 0 Number of patients (%) | Rash papular, All ([2]; Days 4–7, fasted dose, N = 12): 0 Number of patients (%) | Rash papular, Grade ≥ 3 ([2]; Days 4–7, fasted dose, N = 12): 0 Number of patients (%) | Skin discolouration, All ([2]; Days 4–7, fasted dose, N = 12): 0 Number of patients (%) | Skin discolouration, Grade ≥ 3 ([2]; Days 4–7, fasted dose, N = 12): 0 Number of patients (%) | Abdominal pain, All ([2]; Days 11–14, fed dose, N = 10): 0 Number of patients (%) | Abdominal pain, Grade ≥ 3 ([2]; Days 11–14, fed dose, N = 10): 0 Number of patients (%) | Anaemia, All ([2]; Days 11–14, fed dose, N = 10): 1 (10.0) Number of patients (%) | Anaemia, Grade ≥ 3 ([2]; Days 11–14, fed dose, N = 10): 0 Number of patients (%) | Any AE (causally related), All ([2]; Days 11–14, fed dose, N = 10): 5 (50.0) Number of patients (%) | Any AE (causally related), Grade ≥ 3 ([2]; Days 11–14, fed dose, N = 10): 4 (40.0) Number of patients (%) | Any AE (irrespective of causality), All ([2]; Days 11–14, fed dose, N = 10): 6 (60.0) Number of patients (%) | Any AE (irrespective of causality), Grade ≥ 3 ([2]; Days 11–14, fed dose, N = 10): 4 (40.0) Number of patients (%) | Diarrhoea, All ([2]; Days 11–14, fed dose, N = 10): 3 (30.0) Number of patients (%) | Diarrhoea, Grade ≥ 3 ([2]; Days 11–14, fed dose, N = 10): 2 (20.0) Number of patients (%) | Hyperglycaemia, All ([2]; Days 11–14, fed dose, N = 10): 1 (10.0) Number of patients (%) | Hyperglycaemia, Grade ≥ 3 ([2]; Days 11–14, fed dose, N = 10): 1 (10.0) Number of patients (%) | Hypokalaemia, All ([2]; Days 11–14, fed dose, N = 10): 0 Number of patients (%) | Hypokalaemia, Grade ≥ 3 ([2]; Days 11–14, fed dose, N = 10): 0 Number of patients (%) | Pneumonia, All ([2]; Days 11–14, fed dose, N = 10): 0 Number of patients (%) | Pneumonia, Grade ≥ 3 ([2]; Days 11–14, fed dose, N = 10): 0 Number of patients (%) | Rash macular, All ([2]; Days 11–14, fed dose, N = 10): 1 (10.0) Number of patients (%) | Rash macular, Grade ≥ 3 ([2]; Days 11–14, fed dose, N = 10): 1 (10.0) Number of patients (%) | Rash maculopapular, All ([2]; Days 11–14, fed dose, N = 10): 2 (20.0) Number of patients (%) | Rash maculopapular, Grade ≥ 3 ([2]; Days 11–14, fed dose, N = 10): 2 (20.0) Number of patients (%) | Rash papular, All ([2]; Days 11–14, fed dose, N = 10): 1 (10.0) Number of patients (%) | Rash papular, Grade ≥ 3 ([2]; Days 11–14, fed dose, N = 10): 1 (10.0) Number of patients (%) | Skin discolouration, All ([2]; Days 11–14, fed dose, N = 10): 0 Number of patients (%) | Skin discolouration, Grade ≥ 3 ([2]; Days 11–14, fed dose, N = 10): 0 Number of patients (%) | Plasma glucose during the fasted period ([2]; up to 4 h post-dose): no indication of glucose elevation | Changes in ECG findings, vital signs or physical examinations [3]: no clinically significant changes | Patients with serious AEs (SAEs) ([3]; 7 of 18 patients, in two the events occurred before start of treatment): 38.9% | Plasma glucose (with plasma insulin and C-peptide) ([3]; majority of patients, similar for tablet and capsule): Elevations in plasma glucose | Dose proportionality of plasma exposure ([4]; dose range 80–800 mg): approximately dose proportional | Dose excreted in urine as unchanged drug ([4]; patients): less than 10% | Terminal half life ([4]; patients): approximately 10 h | Pre-dose plasma concentration, geometric least-squares mean ([5]; Day 8, 3 days after the last dose on Day 4): 3.34 ng/mL | Average steady-state concentration over the 12-h dosing interval (geometric mean AUCτ/12) ([5]; Day 11): 678 ng/mL | AUCτ, Gmean (CV%) ([5]; Day 4, overnight fasted): 9116 (16.8) h ng/mL | Cmax, Gmean (CV%) ([5]; Day 4, overnight fasted): 1842 (31.1) ng/mL | Cmin, Gmean (CV%) ([5]; Day 4, overnight fasted): 218.5 (30.3) ng/mL | tmax, median (range) ([5]; Day 4, overnight fasted): 0.6 (0.5–4) h | AUCτ, Gmean (CV%) [5, 7]: 8136 (33.9) h ng/mL | Cmax, Gmean (CV%) [5, 7]: 1239 (23.3) ng/mL | Cmin, Gmean (CV%) [5, 7]: 262.3 (58.6) ng/mL | tmax, median (range) [5, 7]: 2.0 (2–4.3) h | AUCτ GLSM ratio fed:fasted [5, 8]: 0.89 | Cmax GLSM ratio fed:fasted [5, 8]: 0.67

From PMC5907623 (Cancer Chemotherapy and Pharmacology, 2018)
